15 compounds from ChEMBL document CHEMBL1268889, “Structural characteristics of thiosemicarbazones as inhibitors of melanogenesis” (Bioorg Med Chem Lett, 2010) can be followed below.

The test system of test [1] is B16. The test is described as follows: Inhibition of melanogenesis in mouse B16 cells at 10 uM. It is filed as functional.
Test [2] deals with B16. Kind of test: Inhibition of melanogenesis in mouse B16 cells. It is filed as functional, cell-based.

`NC(=S)N/N=C/c1ccccc1O`: the inhibition (usually the relative decrease from the control value, in per cent) at 10 µM in test [1] worked out at 24%. In test [2], the half-inhibitory concentration (IC50) (commonly the concentration that inhibits the measured activity by half) stood at 21 µM. Take `CCc1ccc(/C=N/NC(N)=S)cc1`: the inhibition at 10 µM in test [1] was over 100%. `COc1cccc(/C=N/NC(N)=S)c1` registered an inhibition at 10 µM in test [1] of 40%. Moreover, inhibition in test [2] was half-maximal at 15.4 µM (IC50). For `NC(=S)N/N=C/c1ccc(Cl)cc1`, in test [1], the inhibition at 10 µM was 92%. The compound also displayed an IC50 in test [2] of 4.2 µM.

Consider `Cc1ccccc1/C=N/NC(N)=S`, for which, in test [1], the inhibition at 10 µM was over 100%. This compound displayed a half-inhibitory concentration (IC50) in test [2] of 3.4 µM. The like results for `Cc1cccc(/C=N/NC(N)=S)c1` were, in that order, over 100% and 2.8 µM. The compound `COc1ccc(/C=N/NC(N)=S)cc1` returned an inhibition at 10 µM in test [1] of 42%. Moreover, the IC50 in test [2] was found to be 15.1 µM. With `NC(=S)N/N=C/c1ccccc1Cl`, in test [1], the inhibition at 10 µM is over 100%. Besides, the IC50 in test [2] was found to be 1.4 µM.

`NC(=S)N/N=C/c1cccc(Cl)c1` gave an inhibition at 10 µM in test [1] of over 100%. The IC50 in test [2] was found to be 2.4 µM. On to `N/C(S)=N/N=C/c1ccccn1`, for which, in test [1], the inhibition at 10 µM came to 15%. Further, in test [2], the IC50 is over 30 µM.

`NC(=S)N/N=C/c1ccccc1` [PHENYLTHIOSEMICARBAZONE]: the inhibition at 10 µM in test [1] was under 10%. Further, the IC50 in test [2] was over 10 µM. The like results for `NC(=S)N/N=C\c1cccc2ccccc12` were, in that order, over 100% and 1.1 µM.

The compound `NC(=S)N/N=C/C1CCCCC1` showed an inhibition at 10 µM in test [1] of 81%. The IC50 in test [2] was found to be 3.4 µM.

As for `CCc1ccccc1/C=N/NC(N)=S`, the inhibition at 10 µM in test [1] was over 100%. The compound further had an IC50 in test [2] of 2.7 µM. As to `Cc1ccc(/C=N/NC(N)=S)cc1`, the inhibition at 10 µM in test [1] stood at 64%.
